The record followed here is US20240335431A1, “1-H-PYRROLO[2,3-c]PYRIDINE COMPOUNDS” (Acerta Pharma B.V., priority 2023, published 2024).

Read-outs that look alike come from different tables or passages of the source.

For one data set, the system named is MOLM-13 cells. As to the kind of experiment: Proliferation assay, MOLM-13 (CellTiter-Glo, 7 days). Type of data set: cell-based, human. The method, boiled down:
(§1)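 Cells seeded at 125 (MOLM-13), 300 (MV4;11), 75 (OCI-AML3) or 200 (HEL) per well were exposed to 3.16-fold compound dilutions (0.1% DMSO) for 7 days at 37° C. Viability by CellTiter-Glo luminescence, normalized to DMSO (100%) and day-0 plate (0%); IC50 from one-site dose-response fit.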

The subject of the next data set is HEL cells. Put plainly: Proliferation assay, HEL control cell line (CellTiter-Glo, 7 days). Type of data set: cell-based, human. In a few lines: as §1
Another data set deals with Menin protein (Homo sapiens, UniProt O00255, DEL460-519). Put plainly: Menin/MLL fluorescence polarization (FP) assay. Type of data set: binding. Conditions: Menin 2 nM, cRho110-Ahx-MBM1/MBM2 peptide 1 nM. The method, then: Compounds were tested in a biochemical binding assay using Menin protein at 2 nM (N6his-tev-Menin_4i80, PB-20-1459) and the substrate cRho110-Ahx-MBM1/MBM2 peptide (UbiQ, UbiQ-Q20201030; cRh110-Ahx-[…]-QRVPALLLPPG-NH2) at 1 nM.
Menin protein, sequence (O00255 with tags, fused parts or gaps DEL460-519): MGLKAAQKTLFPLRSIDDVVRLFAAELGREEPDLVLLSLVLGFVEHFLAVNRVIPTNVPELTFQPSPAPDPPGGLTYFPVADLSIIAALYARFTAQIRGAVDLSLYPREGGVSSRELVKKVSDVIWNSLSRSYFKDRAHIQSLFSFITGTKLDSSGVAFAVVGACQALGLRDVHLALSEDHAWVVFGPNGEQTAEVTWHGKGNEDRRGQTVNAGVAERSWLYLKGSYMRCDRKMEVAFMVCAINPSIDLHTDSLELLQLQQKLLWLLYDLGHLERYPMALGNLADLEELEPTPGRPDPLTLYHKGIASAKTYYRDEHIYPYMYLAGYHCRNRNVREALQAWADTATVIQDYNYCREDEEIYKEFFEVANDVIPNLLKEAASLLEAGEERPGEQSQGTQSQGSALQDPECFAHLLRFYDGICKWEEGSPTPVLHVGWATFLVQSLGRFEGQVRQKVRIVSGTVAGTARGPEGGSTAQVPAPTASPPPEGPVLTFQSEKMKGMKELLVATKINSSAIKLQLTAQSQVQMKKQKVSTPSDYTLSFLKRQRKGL
384 Low volume black plates (Corning #4514) were used. 5 μL/well compound or 3% DMSO was added at 10-fold serial dilutions in DMSO from 10 μM. 5 μL/well cRho110-Ahx-MBM1/MBM2 peptide or binding buffer (50 mM Tris pH 7.5, 50 mM NaCl, 1 mM TCEP, 0.01% BGG, 0.01% Brij-35) was added to all wells. 5 μL/well Menin protein or binding buffer (50 mM Tris pH 7.5, 50 mM NaCl, 1 mM TCEP, 0.01% BGG, 0.01% Brij-35) was added to all wells. Plates were read on an EnVision plate reader (Perkin Elmer) with excitation at 480 nm and emission at 535 nm P+S, and measured every 5 minutes for 180 minutes.
Data were analyzed in Genedata Screener®. IC50 values were determined by plotting % inhibition versus log compound concentration and using a one site dose response model. Raw data signals were normalized using 1% DMSO no Menin as 100% inhibitor control and 1% DMSO with Menin and no inhibitor as 0% inhibitor control.

Data set [1] is described as follows: Human liver microsomes (HLMs) intrinsic clearance assay. Type of data set: in vitro ADME. Conditions: human, microsomes; for HLM CLint: 1 µM, pH 7.4.
Another data set addresses hERG (Homo sapiens (Human), UniProt Q12809). Put plainly: hERG assay 1 (standard), SyncroPatch 384PE. Type of data set: cell-based. Conditions: CHO cells, room temperature, up to 40 uM. The method, then:
Experiments were performed on the SyncroPatch 384PE (Nanion Technologies) high throughput patch clamp platform at room temperature and used medium resistance chips with 4 patch holes per site. hERG-expressing Chinese hamster ovary K1 (CHO) cell line was used in assay-ready format and kept in liquid nitrogen until use. 2 vials of cells (10×10^6 cells per vial) were thawed and added to 20 ml Hepes-buffered saline solution (HBSS). HBSS comprised 140 mM NaCl, 4 mM KCl, 10 mM HEPES and 5 mM Glucose (pH 7.4). The internal patch clamp solution was KF 120 mM, KCl 20 mM, HEPES 10 mM, EGTA 10 mM, and 25 μM Escin (pH 7.2). After the initial sealing process was complete, a seal enhancer solution comprising HBSS supplemented with 10 mM CaCl2 and 1 mM MgCl2 was applied to cells. The external solution was then exchanged (4 times) for external patch clamp solution comprising NaCl 80 mM, KCl 4 mM, HEPES 10 mM, CaCl2 2 mM, MgCl2 1 mM, glucose 5 mM, and NMDG 60 mM (pH7.4). All compounds were dispensed from initial 10 mM DMSO stocks. An industry standard +60/−40 mV voltage protocol was applied every 15 seconds. Compounds were tested in a 6-point cumulative assay (final DMSO concentration 0.33%), with a concentration range of 139 nM to 40 uM. Data were analyzed in Genedata Screener®. IC50 values were determined by plotting % inhibition versus log compound concentration and using a one site dose response model. Only wells that passed acceptance criteria for this platform were used in this analysis (30 MegaOhm seal resistance, Z prime >0.4 and current size >0.2 nA).

hERG, sequence (Q12809 whole entry): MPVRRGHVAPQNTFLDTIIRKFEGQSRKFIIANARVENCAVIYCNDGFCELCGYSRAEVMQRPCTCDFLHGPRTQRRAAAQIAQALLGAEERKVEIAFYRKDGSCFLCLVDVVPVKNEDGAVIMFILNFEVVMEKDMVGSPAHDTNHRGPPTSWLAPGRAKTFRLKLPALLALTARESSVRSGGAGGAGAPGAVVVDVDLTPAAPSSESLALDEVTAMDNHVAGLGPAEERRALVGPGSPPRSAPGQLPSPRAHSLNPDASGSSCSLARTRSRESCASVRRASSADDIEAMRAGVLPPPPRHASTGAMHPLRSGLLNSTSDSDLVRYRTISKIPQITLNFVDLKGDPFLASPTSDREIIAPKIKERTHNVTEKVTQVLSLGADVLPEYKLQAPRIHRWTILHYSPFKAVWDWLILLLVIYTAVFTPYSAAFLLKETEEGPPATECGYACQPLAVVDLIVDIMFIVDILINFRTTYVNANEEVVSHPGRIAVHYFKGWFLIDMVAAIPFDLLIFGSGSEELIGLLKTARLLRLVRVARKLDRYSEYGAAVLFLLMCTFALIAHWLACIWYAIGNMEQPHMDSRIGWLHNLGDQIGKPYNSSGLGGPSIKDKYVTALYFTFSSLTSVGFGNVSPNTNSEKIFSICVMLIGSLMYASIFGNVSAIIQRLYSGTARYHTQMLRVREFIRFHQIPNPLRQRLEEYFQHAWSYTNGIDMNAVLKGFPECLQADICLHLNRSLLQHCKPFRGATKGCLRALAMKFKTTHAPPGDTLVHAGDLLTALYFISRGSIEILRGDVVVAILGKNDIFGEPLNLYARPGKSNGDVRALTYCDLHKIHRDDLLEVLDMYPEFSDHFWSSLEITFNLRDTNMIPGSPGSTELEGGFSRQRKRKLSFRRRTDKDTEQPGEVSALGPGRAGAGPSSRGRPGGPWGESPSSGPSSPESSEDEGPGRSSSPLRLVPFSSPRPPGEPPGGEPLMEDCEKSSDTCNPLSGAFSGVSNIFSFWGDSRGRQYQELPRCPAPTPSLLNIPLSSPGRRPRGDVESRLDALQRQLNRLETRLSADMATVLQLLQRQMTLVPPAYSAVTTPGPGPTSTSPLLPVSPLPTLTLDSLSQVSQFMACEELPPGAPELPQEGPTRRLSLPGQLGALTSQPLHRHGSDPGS

Consider `Cc1c(C(=O)[C@@H]2CCN(C(=O)[C@H]3NC[C@@H]4C[C@@H]43)[C@@H](C)C2)c2ccncc2n1-c1ccc(F)cc1C(=O)N(CC(F)(F)F)C(C)C` (single isomer, unassigned) [Example 53-2, 2-(3-((2R*,4S*)-1-((1S,2S,5R)-3-Azabicyclo[3.1.0]hexane-2-carbonyl)-2-methylpiperidine-4-carbonyl)-2-methyl-1H-pyrrolo[2,3-c]pyridin-1-yl)-5-fluoro-N-isopropyl-N-(2,2,2-trifluoroethyl)benzamide], for which the figures for the IC50 in the data set on MOLM-13 cells, in the data set on HEL cells and at Menin protein were 1.3 µM, over 10 µM and 7.8 µM, respectively. Also, the “HLM CLint” value in data set [1] was 77 µL/min/mg.
On to `Cc1c(C(=O)C2CCN(C(=O)[C@H]3NC[C@@H]4C[C@@H]43)CC2)c2ccncc2n1-c1ccc(F)cc1C(=O)N(C(C)C)[C@H](C)C(F)(F)F` (single isomer, unassigned) [Example 57-2], for which the IC50 in the data set on MOLM-13 cells was over 10 µM; in the data set with HEL cells, over 10 µM; on Menin protein it was over 10 µM; on hERG, over 40 µM. For the same compound, the “HLM CLint” value in data set [1] turned out to be 95 µL/min/mg.
Consider `[2H]C([2H])([2H])C([2H])(N(C(=O)c1cc(F)ccc1-n1c(C)c(C(=O)C2CCN(C(=O)[C@@H]3CCC(C)(C)N3)CC2)c2ccncc21)C([2H])(C([2H])([2H])[2H])C([2H])([2H])[2H])C([2H])([2H])[2H]` [Example 59, (S)-2-(3-(1-(5,5-Dimethylpyrrolidine-2-carbonyl)piperidine-4-carbonyl)-2-methyl-1H-pyrrolo[2,3-c]pyridin-1-yl)-5-fluoro-N,N-bis(propan-2-yl-d7)benzamide], for which the half-inhibitory concentration (IC50) with MOLM-13 cells (Homo sapiens, MOLM-13, 168 h) was 0.094 µM; with HEL cells (Homo sapiens, HEL, 168 h) it was over 10 µM; at Menin protein, 0.102 µM; against hERG it was over 40 µM. In data set [1] (pH 7.4, HLM CLint), the microsomal CLint at 1 µM turned out to be 59 µL/min/mg.
